# Laboratory results as given in publication PMC10313921, “A living ex vivo platform for functional, personalized brain cancer diagnosis” (Cell Reports Medicine, 2023).
# Columns and labels:
# Format in all cases: cell-based, human
# [1] = test system: MB231Br (breast cancer metastasis to brain); assay: Drug screening of MB231Br tumor foci on OBSCs
# [2] = test system: MS21 (low-passage patient-derived GBM line); assay: Drug screening of MS21 tumor foci on OBSCs
# Protocol: (§1) Tumor cells (0.17 μL, 25,000 cells) were seeded onto OBSCs 2h after slicing, with one tumor seeded in the center of each hemisphere for a total of two tumor foci per OBSC. BSM was changed 24h after slicing. Fluorescence images were taken 0 h, 24 h, and 96 h post-seeding for normalization of tumor size. Bioluminescence readouts were also taken at 0 h, 24 h, and 96 h post seeding for assessment of cell viability. Luciferin was added underneath the culture insert and allowed to incubate for 10 min before bioluminescence measurement on an AMI optical imaging system.
# (§2) Tumor cells were seeded onto OBSCs 2h after slicing as described above. One day after tumor seeding, six concentrations of each drug were diluted in the media underneath each culture insert, or XRad was applied using an X-Rad 320 Precision X-ray machine (n = 4 tumor foci per concentration; n ≥ 24 tumor foci per drug per cell line). Three days after treatment, the bioluminescence of live tumor cells was measured using an AMI optical imager (Spectral Instruments) and dose-response curves were generated. Tumor survival was normalized to day one tumor fluorescence and compared to an untreated control group.
# (§3) Several weighted parameters were factored into an overall drug sensitivity score.
# (§4) For DSS parameters 1–6, therapeutic windows were calculated by comparing OBSC toxicity and tumor response at the doses where tumor kill passed through the DSS parameter (Table S1 and S3). For DSS parameter 7, the therapeutic window was calculated by comparing the slopes through the tumor EC50 and the OBSC tox EC50. For DSS parameter 8, the therapeutic window was calculated by comparing the areas under tumor kill and OBSC tox curves. Normalized therapeutic window ratios for DSS parameters 1–8 within each drug-tumor-OBSC interaction were calculated in the following manner: within each window, values ranged from +1 to −1, where values approaching +1 signify increasing tumor kill relative to normal tissue toxicity, and values approaching −1 indicate agents where tumors remained highly viable while toxicity to the normal OBSC tissue was elevated. DSS parameters 9–11 were determined based on the behavior of the tumor in response to the drug, as defined above.
# (§5) All individually weighed parameters were added together to generate the DSS. Overall DSS from 0 to 100 signify increasing efficacy in tumor kill relative to OBSC toxicity, while scores from 0 to −100 describe scenarios in which tumors thrive more effectively than OBSCs for a given treatment. Dose-response values were calculated via linear interpolation of raw data, not from best-fit curve equations.
# [3] = test system: PDIPG (low-passage pediatric patient-derived line); assay: Drug screening of PDIPG tumor foci on OBSCs
# Protocol: as §1, §2, §3, §4, §5
# [4] = test system: U373WT (wild-type established GBM line); assay: Drug screening of U373WT tumor foci on OBSCs
# Protocol: as §1, §2, §3, §4, §5
# [5] = test system: GBM8 (high-passage patient-derived GBM line); assay: Drug screening of GBM8 tumor foci on OBSCs
# Protocol: as §1, §2, §3, §4, §5
# [6] = test system: LN229 (established GBM line); assay: Drug screening of LN229 tumor foci on OBSCs
# Protocol: as §1, §2, §3, §4, §5
# [7] = test system: U373KO (RAD18 knockout of U373WT via CRISPR); assay: Drug screening of U373KO tumor foci on OBSCs; settings: U373 KO on OBSCs
# Protocol: as §1, §2, §3, §4, §5
# [8] = area under the dose-response curve, trapezoidal rule
# [9] = dose required to kill 10% of the tumor
# [10] = dose required to kill 25% of the tumor
# [11] = dose required to kill 75% of the tumor
compound,measurement,setting,value
O=NN(CCCl)C(=O)NC1CCCCC1 [Lomustine],EC50,"[1]; Homo sapiens, MB231BR on OBSCs, dose required to kill 50% of the tumor",1610 µM
same,EC90,"[1]; Homo sapiens, MB231BR on OBSCs, dose required to kill 90% of the tumor",1940 µM
same,IC50,"[1]; Homo sapiens, MB231Br on OBSCs, dosed day 1, survival via bioluminescence day 4, linear interpolation",1610 µM
same,Killing at highest dose,[1]; MB231BR on OBSCs,9.70E-01 fraction of tumor population killed
same,AUC,"[1]; MB231BR on OBSCs, area under the dose-response curve, trapezoidal rule",1.96E+03
same,EC10,"[1]; MB231BR on OBSCs, dose required to kill 10% of the tumor",1280 µM
same,EC25,"[1]; MB231BR on OBSCs, dose required to kill 25% of the tumor",1400 µM
same,EC75,"[1]; MB231BR on OBSCs, dose required to kill 75% of the tumor",1820 µM
same,Slope,"[1]; MB231BR on OBSCs, slope through the EC50",-1.20E-03
same,EC50,[2]; Homo sapiens,1550 µM
same,EC90,[2]; Homo sapiens,1990 µM
same,IC50,[2]; Homo sapiens,1550 µM
same,Killing at highest dose,[2]; MS21 on OBSCs,9.10E-01 fraction of tumor population killed
same,AUC,"[2]; MS21 on OBSCs, area under the dose-response curve, trapezoidal rule",1.61E+03
same,EC10,"[2]; MS21 on OBSCs, dose required to kill 10% of the tumor",1120 µM
same,EC25,"[2]; MS21 on OBSCs, dose required to kill 25% of the tumor",1280 µM
same,EC75,"[2]; MS21 on OBSCs, dose required to kill 75% of the tumor",1830 µM
same,Slope,"[2]; MS21 on OBSCs, slope through the EC50",-9.20E-04
same,EC50,[3]; Homo sapiens,688 µM
same,EC90,[3]; Homo sapiens,1880 µM
same,IC50,[3]; Homo sapiens,688 µM
same,Killing at highest dose,[3]; PDIPG on OBSCs,9.30E-01 fraction of tumor population killed
same,AUC,"[3]; PDIPG on OBSCs, area under the dose-response curve, trapezoidal rule",9.11E+02
same,EC10,"[3]; PDIPG on OBSCs, dose required to kill 10% of the tumor",354 µM
same,EC25,"[3]; PDIPG on OBSCs, dose required to kill 25% of the tumor",425 µM
same,EC75,"[3]; PDIPG on OBSCs, dose required to kill 75% of the tumor",1310 µM
same,Slope,"[3]; PDIPG on OBSCs, slope through the EC50",-4.80E-04
same,EC50,"[4]; Homo sapiens, U373 MG, U373 WT on OBSCs, dose required to kill 50% of the tumor",665 µM
same,EC90,"[4]; Homo sapiens, U373 MG, U373 WT on OBSCs, dose required to kill 90% of the tumor",1960 µM
same,IC50,"[4]; Homo sapiens, U373 MG, U373 WT on OBSCs, dosed day 1, survival via bioluminescence day 4, linear interpolation",665 µM
same,Killing at highest dose,[4]; U373 WT on OBSCs,9.10E-01 fraction of tumor population killed
same,AUC,"[4]; U373 WT on OBSCs, area under the dose-response curve, trapezoidal rule",8.89E+02
same,EC10,"[4]; U373 WT on OBSCs, dose required to kill 10% of the tumor",139 µM
same,EC25,"[4]; U373 WT on OBSCs, dose required to kill 25% of the tumor",554 µM
same,EC75,"[4]; U373 WT on OBSCs, dose required to kill 75% of the tumor",1380 µM
same,Slope,"[4]; U373 WT on OBSCs, slope through the EC50",-2.24E-03
same,DSS (drug sensitivity score),"[4]; U373 WT, scale -100 to +100, tumor kill relative to OBSC toxicity",64
same,Killing at highest dose,[5]; GBM8 on OBSCs,1.00E+00 fraction of tumor population killed
same,AUC,"[5]; GBM8 on OBSCs, area under the dose-response curve, trapezoidal rule",1.54E+01
same,EC10,"[5]; GBM8 on OBSCs, dose required to kill 10% of the tumor",0.685 µM
same,EC25,"[5]; GBM8 on OBSCs, dose required to kill 25% of the tumor",1.71 µM
same,EC75,"[5]; GBM8 on OBSCs, dose required to kill 75% of the tumor",5.45 µM
same,Slope,"[5]; GBM8 on OBSCs, slope through the EC50",-1.46E-01
same,EC50,[5]; Homo sapiens,3.43 µM
same,EC90,[5]; Homo sapiens,8.71 µM
same,IC50,[5]; Homo sapiens,3.4 µM
same,Killing at highest dose,[6],1.00E+00 fraction of tumor population killed
same,EC50,"[6]; Homo sapiens, LN-229, dose required to kill 50% of the tumor",960 µM
same,EC90,"[6]; Homo sapiens, LN-229, dose required to kill 90% of the tumor",1780 µM
same,IC50,"[6]; Homo sapiens, LN-229, dosed day 1, survival via bioluminescence day 4, linear interpolation",960 µM
same,AUC,[6]; [8],9.70E+02
same,EC10,[6]; [9],417 µM
same,EC25,[6]; [10],758 µM
same,EC75,[6]; [11],1440 µM
same,Slope,[6]; slope through the EC50,-1.24E-03
same,EC50,"[7]; Homo sapiens, U373 MG, dose required to kill 50% of the tumor",607 µM
same,EC90,"[7]; Homo sapiens, U373 MG, dose required to kill 90% of the tumor",1830 µM
same,IC50,"[7]; Homo sapiens, U373 MG, dosed day 1, survival via bioluminescence day 4, linear interpolation",607 µM
same,Killing at highest dose,[7],9.70E-01 fraction of tumor population killed
same,AUC,[7]; [8],8.35E+02
same,EC10,[7]; [9],83.3 µM
same,EC25,[7]; [10],208 µM
same,EC75,[7]; [11],1460 µM
same,Slope,[7]; slope through the EC50,-5.60E-04
